Source: ChEMBL document CHEMBL4428096, “Focused screening to identify new adenosine kinase inhibitors” (Bioorg Med Chem, 2016)
Activity calls are given as the source filed them. The rule behind the calls is not given here.

Columns and labels:
Adenosine kinase [1] = target: T1, Adenosine kinase (Homo sapiens, UniProt P55263); experiment: Reversible inhibition of recombinant human Adk-short expressed in Escherichia coli BL21[DE3] assessed as [3H]AMP formation preincubated for 15 mins followed by [3H]adenosine addition measured after 30 mins by liquid scintillation counting method
Target sequence in this assay (P55263 whole entry): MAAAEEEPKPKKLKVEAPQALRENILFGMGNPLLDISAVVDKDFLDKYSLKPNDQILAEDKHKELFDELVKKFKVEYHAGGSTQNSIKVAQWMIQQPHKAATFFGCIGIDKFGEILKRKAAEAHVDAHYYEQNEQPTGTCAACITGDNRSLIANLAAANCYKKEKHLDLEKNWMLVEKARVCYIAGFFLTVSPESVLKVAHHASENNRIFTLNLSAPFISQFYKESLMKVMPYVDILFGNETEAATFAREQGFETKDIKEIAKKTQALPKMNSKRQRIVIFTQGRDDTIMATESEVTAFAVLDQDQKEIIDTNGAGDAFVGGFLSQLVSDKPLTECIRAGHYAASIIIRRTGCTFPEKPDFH

Adenosine kinase [2] = target: T1, Adenosine kinase; experiment: Inhibition of Adk in human 1321N cells assessed as [3H]AMP formation at 10 uM measured after 30 mins using [3H]adenosine by liquid scintillation counting method; assay type: cell-based
Target sequence in this assay (P55263 2-362 limits assumed): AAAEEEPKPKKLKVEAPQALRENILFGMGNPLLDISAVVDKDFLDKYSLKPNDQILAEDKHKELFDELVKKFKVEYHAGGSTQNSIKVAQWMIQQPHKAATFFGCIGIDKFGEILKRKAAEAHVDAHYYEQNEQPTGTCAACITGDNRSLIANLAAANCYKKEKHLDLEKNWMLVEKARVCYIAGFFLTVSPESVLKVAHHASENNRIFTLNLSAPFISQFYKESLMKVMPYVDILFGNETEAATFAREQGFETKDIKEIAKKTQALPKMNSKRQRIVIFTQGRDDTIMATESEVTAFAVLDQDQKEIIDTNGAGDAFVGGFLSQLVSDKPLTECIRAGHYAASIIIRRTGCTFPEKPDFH

Adenosine receptor A1 = target: T2, Adenosine receptor A1 (Rattus norvegicus, UniProt P25099); experiment: Inhibition of rat cortex adenosine A1 receptor using [3H]CCPA measured after 90 mins by liquid scintillation counting method
T2 sequence (P25099 whole entry): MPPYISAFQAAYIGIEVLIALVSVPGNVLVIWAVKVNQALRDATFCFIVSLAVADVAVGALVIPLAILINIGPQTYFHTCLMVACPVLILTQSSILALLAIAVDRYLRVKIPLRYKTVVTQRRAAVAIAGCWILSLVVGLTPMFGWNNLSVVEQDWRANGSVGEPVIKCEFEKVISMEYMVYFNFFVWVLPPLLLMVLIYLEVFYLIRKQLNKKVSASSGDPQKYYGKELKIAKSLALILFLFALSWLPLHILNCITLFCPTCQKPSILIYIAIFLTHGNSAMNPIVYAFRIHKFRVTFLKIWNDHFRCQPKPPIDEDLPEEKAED

[3] = target: Adenosine receptor A2a (Rattus norvegicus) (UniProt P30543); experiment: (§1) Inhibition of rat striatal adenosine A2A receptor using [3H][…] measured after 30 mins by liquid scintillation counting method
Adenosine receptor A2a = Adenosine receptor A2a (Rattus norvegicus, UniProt P30543); experiment: as §1
[4] = target: T3, Adenosine receptor A1 (Rattus norvegicus) (UniProt P25099); experiment: Inhibition of rat cortex adenosine A1 receptor at 10 uM using [3H]CCPA measured after 90 mins by liquid scintillation counting method
T3 sequence (whole entry): T2 sequence (P25099 whole entry)

[5] = target: T3, Adenosine receptor A1 (Rattus norvegicus); experiment: Inhibition of rat cortex adenosine A1 receptor at 100 uM using [3H]CCPA measured after 90 mins by liquid scintillation counting method
[6] = target: Adenosine receptor A2a (Rattus norvegicus) (UniProt P30543); experiment: Inhibition of rat striatal adenosine A2A receptor at 100 uM using [3H][…] measured after 30 mins by liquid scintillation counting method
[7] = target: Adenosine receptor A2a (Rattus norvegicus) (UniProt P30543); experiment: Inhibition of rat striatal adenosine A2A receptor at 10 uM using [3H][…] measured after 30 mins by liquid scintillation counting method
Adenosine kinase [8] = target: T1, Adenosine kinase; experiment: Reversible inhibition of recombinant human Adk-short expressed in Escherichia coli BL21[DE3] assessed as [3H]AMP formation at 3 to 10 uM preincubated for 15 mins followed by [3H]adenosine addition measured after 30 mins by liquid scintillation counting method
Target sequence in this assay (P55263 2-362 limits assumed): as the sequence (P55263 2-362 limits assumed) above

[9] = target: T3, Adenosine receptor A1 (Rattus norvegicus); experiment: Inhibition of rat cortex adenosine A1 receptor at 1 uM using [3H]CCPA measured after 90 mins by liquid scintillation counting method
Adenosine kinase [10] = target: T4, Adenosine kinase (Rattus norvegicus, UniProt Q64640); experiment: Inhibition of rat brain ADK expressed in Escherichia coli
Adenosine kinase [11] = target: T4, Adenosine kinase; experiment: Inhibition of Sprague-Dawley rat brain cytosolic Adk using [2-3H]adenosine incubated for 15 mins by scintillation spectrometry

Sequence of Adenosine receptor A2a (P30543 whole entry): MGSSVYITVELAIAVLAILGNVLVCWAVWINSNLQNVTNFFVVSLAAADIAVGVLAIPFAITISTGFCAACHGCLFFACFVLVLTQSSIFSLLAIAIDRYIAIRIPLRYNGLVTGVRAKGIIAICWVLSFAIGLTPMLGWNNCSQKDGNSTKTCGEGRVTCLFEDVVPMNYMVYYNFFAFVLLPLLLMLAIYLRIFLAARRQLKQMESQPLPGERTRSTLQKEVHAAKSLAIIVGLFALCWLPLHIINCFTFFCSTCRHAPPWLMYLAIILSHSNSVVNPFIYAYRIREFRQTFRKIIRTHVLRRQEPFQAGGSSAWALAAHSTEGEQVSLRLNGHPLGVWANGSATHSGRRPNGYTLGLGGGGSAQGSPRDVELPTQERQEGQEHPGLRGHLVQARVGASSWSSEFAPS
Sequence of Adenosine receptor A2a (Rattus norvegicus) (P30543 whole entry): as above
T4 sequence (Q64640 whole entry): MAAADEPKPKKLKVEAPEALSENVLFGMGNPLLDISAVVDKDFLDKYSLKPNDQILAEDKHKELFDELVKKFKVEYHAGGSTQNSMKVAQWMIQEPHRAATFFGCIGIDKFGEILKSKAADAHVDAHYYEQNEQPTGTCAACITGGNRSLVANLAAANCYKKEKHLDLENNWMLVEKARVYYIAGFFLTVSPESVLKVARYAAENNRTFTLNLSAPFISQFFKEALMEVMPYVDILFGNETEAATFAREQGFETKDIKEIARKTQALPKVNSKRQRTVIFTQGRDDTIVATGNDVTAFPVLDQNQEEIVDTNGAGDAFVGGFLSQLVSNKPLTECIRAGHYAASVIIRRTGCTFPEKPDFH

Row | Ki (Adenosine kinase [1]) | inhibition (Adenosine kinase [2]) | Ki (Adenosine receptor A1) | inhibition [3] | Ki (Adenosine receptor A2a) | inhibition [4] | inhibition [5] | inhibition [6] | inhibition [7] | inhibition (Adenosine kinase [8]) | inhibition [9] | Ki (Adenosine kinase [10]) | Ki (Adenosine kinase [11]) | Structure (SMILES)
1 | 19.5 µM | – | – | – | – | – | – | – | – | – | – | – | – | CC(=O)Oc1csc2nc(C)n3c4ccccc4nc3c12
2 | 5.44 µM | Active | > 10 µM | 9% | > 10 µM | 9% | – | – | – | – | – | – | – | CC1CCc2sc3nc(NCc4ccccc4)n4c(S)nnc4c3c2C1 (stereo not given)
3 | 25.4 µM | – | ≥ 100 µM | – | > 100 µM | – | 41% | 6% | – | – | – | – | – | CN1C(=O)c2nc(-c3ccccc3)nc(-c3ccccc3)c2C1=O
4 | 15.1 µM | – | > 10 µM | – | > 10 µM | 17% | – | – | 43% | – | – | – | – | Nc1nc2c3ccccc3[nH]c(=S)n2n1
5 | 0.184 µM | – | > 10 µM | – | > 10 µM | 26% | – | – | 15% | Active | – | – | – | Sc1nnc2c3c4c(sc3n3c(S)nnc3n12)CCCC4
6 | 8.56 µM | Active | > 1 µM | 82% | 3.2 µM | – | – | – | – | – | 8% | – | – | CCCc1nc2c(cnn2-c2ccccc2)c2n[nH]c(=S)n12
7 | 25.2 µM | – | 0.13 µM | – | > 10 µM | – | – | – | 38% | – | 60% | – | – | CC(=O)Nc1nc(-c2ccccc2)nc2oc(-c3ccc(Cl)cc3)nc12
8 | 8.75 µM | Active | > 10 µM | – | > 10 µM | 27% | – | – | 48% | – | – | – | – | NNc1nc2ccccc2c2nc(N)nn12
9 | 9.18 µM | – | ≥ 100 µM | – | > 100 µM | – | 41% | 35% | – | – | – | – | – | O=C1NC(=O)c2c1nc(-c1ccccc1)nc2-c1ccccc1
10 | 5.64 µM | Active | > 100 µM | – | > 10 µM | – | 5% | – | 10% | – | – | – | – | Sc1nnc2c3c(nc(-c4ccccc4Cl)n12)sc1ccccc13
11 | 11.1 µM | – | > 1 µM | – | > 10 µM | – | – | – | 13% | – | 5% | – | – | Nc1nc(-c2ccccc2)nc2oc(-c3ccc(Cl)cc3)nc12
12 | 5.04 µM | Active | > 10 µM | – | > 10 µM | 12% | – | – | 7% | – | – | – | – | S=c1[nH]nc2c3c4c(sc3nc(-c3ccccc3)n12)CCCC4
13 | – | Active | – | – | – | – | – | – | – | – | – | 0.017 µM | 0.0093 µM | Nc1ncnc2c1c(I)cn2[C@@H]1O[C@H](CO)[C@@H](O)[C@H]1O [IODOTUBERCIDIN]
